Measured values reported in the METLIN SMRT retention time set (Domingo-Almenara et al. 2019).

Test: gradient 5% acetonitrile 3 min, to 50% in 2 min, to 85% in 15 min, held 3 min, 100 µL/min
Settings: column: Zorbax Extend-C18 2.1 x 50 mm; eluents: water / acetonitrile, 0.1% formic acid
How it was run: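 Retention times of pure standards were taken from adduct peaks that were selected by computer and manually inspected. Over 3 months, mixtures of ~100 molecules were run by HPLC–quadrupole time-of-flight mass spectrometry in positive and negative ionization mode. The Zorbax Extend-C18 column (2.1 × 50 mm, 1.8 μm) ran at 100 μL/min in water and acetonitrile, each containing 0.1% formic acid, with 40 μL dead volume and 900 μL dwell volume.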

**Q.** With `O=C(NCc1ccc(Cl)cc1)c1cn2c(n1)COCC2` as the molecule, how does the RP-LC retention time read?
**A.** 678 s

**Q.** For `O=C(NCCc1c[nH]c2ccc(Cl)cc12)c1cncc(Br)c1`, which RP-LC retention time is on record?
**A.** 851 s

**Q.** For `C#Cc1cccc(Nc2ncnc3cc(OCCOC)c(OCCO)cc23)c1`, which RP-LC retention time is on record?
**A.** 663 s

**Q.** Which RP-LC retention time does the source give for `CCOC(=O)Cc1c(C)nc2c(-c3ccccc3OC)c(C)nn2c1C` here?
**A.** 943 s

**Q.** For `CCn1cc(-c2nc(CC(=O)NCc3cccs3)cs2)c2cccnc21`, which RP-LC retention time is on record?
**A.** 805 s

**Q.** With `COCc1nc(NCc2cccnc2)ncc1C(=O)O` as the molecule, how does the RP-LC retention time read?
**A.** 809 s

**Q.** With `O=C(Cn1cc(-c2ccccc2)c2ncn(C3CC3)c(=O)c21)NCc1ccc2c(c1)OCO2` as the molecule, how does the RP-LC retention time read?
**A.** 852 s

**Q.** With `CC(C)Oc1ccc(C(=O)Nc2nc(-c3cccnc3)cs2)cc1` as the molecule, how does the RP-LC retention time read?
**A.** 660 s

**Q.** With `CC(C)NC(=O)C1CCCN(c2nccn3nc(-c4ccccc4Cl)cc23)C1` (configuration not stated) as the molecule, how does the RP-LC retention time read?
**A.** 806 s

**Q.** For `O=C(CCCN1C(=O)C2C3C=CC(C3)C2C1=O)N1CCN(c2ccc(F)cc2)CC1` (configuration not stated), which RP-LC retention time is on record?
**A.** 800 s

**Q.** Which RP-LC retention time does the source give for `C=CCc1c(C)nn(-c2nc(CC(=O)Nc3nc4ccccc4[nH]3)cs2)c1C` here?
**A.** 764 s

**Q.** Which RP-LC retention time does the source give for `CCN(CC)CCCNC(=O)C1c2ccccc2C(=O)N2CCc3cc(OC)c(OC)cc3C12` (configuration not stated) here?
**A.** 597 s

**Q.** With `Cc1ccc(C(=O)N2CCCC2c2nc(-c3cccc(Cl)c3)no2)c(C)c1` (configuration not stated) as the molecule, how does the RP-LC retention time read?
**A.** 1200 s

**Q.** For `CC(NC(=O)c1ccccc1)c1nc(-c2ccc(NS(C)(=O)=O)cc2)no1` (configuration not stated), which RP-LC retention time is on record?
**A.** 766 s

**Q.** For `C#CCSc1nc2ccccc2c2nc(-c3cccnc3)nn12`, which RP-LC retention time is on record?
**A.** 998 s

**Q.** For `Cc1cc(C)n(Cc2nc(-c3ccc(NC(=O)c4sccc4C)cc3)oc2C)n1`, which RP-LC retention time is on record?
**A.** 951 s

**Q.** Which RP-LC retention time does the source give for `COc1ccccc1NC(=O)Nc1cccc(-c2ccc(N3CCOCC3)nn2)c1` here?
**A.** 702 s

**Q.** Which RP-LC retention time does the source give for `CC1CCc2c(sc(NC(=O)Cc3ccc(Cl)s3)c2C(N)=O)C1` (configuration not stated) here?
**A.** 1000 s

**Q.** For `Cc1ccc(C)c(NC(=O)CN2CCN(C(=O)Nc3ccc(Br)cc3)CC2=O)c1`, which RP-LC retention time is on record?
**A.** 789 s

**Q.** For `O=C(N[C@H]1C[C@@H]2C[C@H]1CN2C(=O)NCc1cccc(F)c1)c1cccs1`, which RP-LC retention time is on record?
**A.** 738 s

**Q.** Which RP-LC retention time does the source give for `O=C(Nc1ccccc1)Nc1ccccc1` here?
**A.** 767 s

**Q.** With `COC(=O)c1ccccc1Nc1c(-c2ccc3c(c2)OCO3)nc2cnccn12` as the molecule, how does the RP-LC retention time read?
**A.** 932 s

**Q.** With `CN(C)S(=O)(=O)c1ccc2c(c1)N(CC(=O)NCc1cccc(Cl)c1)C(=O)C1CCCCN21` (configuration not stated) as the molecule, how does the RP-LC retention time read?
**A.** 957 s

**Q.** For `CCC(C)NC(=O)c1cc(C)nc2ccc(Cl)cc12` (configuration not stated), which RP-LC retention time is on record?
**A.** 770 s

**Q.** Which RP-LC retention time does the source give for `CC(C)CC(=O)Nc1ccc(OCc2cc(C(=O)NC3CCCC3)no2)cc1` here?
**A.** 890 s

**Q.** For `CCSc1nnc(-c2nn(C)c3c2CN(S(=O)(=O)c2ccc(C(C)C)cc2)CC3)n1CC`, which RP-LC retention time is on record?
**A.** 1090 s

**Q.** For `COc1ccccc1N1CCN(S(=O)(=O)c2ccc(F)cc2C)CC1`, which RP-LC retention time is on record?
**A.** 1010 s

**Q.** For `COc1ccccc1-c1nnc(-c2ccc(Cl)c(S(=O)(=O)N3CCCC3)c2)o1`, which RP-LC retention time is on record?
**A.** 992 s

**Q.** With `O=C(Nc1nccnc1C(=O)NC1CC1)c1ccccc1` as the molecule, how does the RP-LC retention time read?
**A.** 732 s

**Q.** With `O=C(NCc1ccc(F)cc1F)C1=C2CCCN2c2ccc(F)cc2S1(=O)=O` as the molecule, how does the RP-LC retention time read?
**A.** 895 s

**Q.** With `CCOCCCNC(=O)N1CCC2(CC1)Nc1cc(F)ccc1-n1cccc12` as the molecule, how does the RP-LC retention time read?
**A.** 858 s

**Q.** Which RP-LC retention time does the source give for `Cc1oc(C2CCN(C(=O)Nc3ccc(F)cc3F)CC2)nc1C(=O)N1CCOCC1` here?
**A.** 680 s

**Q.** Which RP-LC retention time does the source give for `Cc1ccc(-c2cc3c(=O)n(Cc4noc(CN5CCOCC5)n4)ccn3n2)cc1` here?
**A.** 733 s

**Q.** Which RP-LC retention time does the source give for `Cc1cc2n(n1)CCCN2C(=O)CCC(=O)N1CCN(c2cc(Cl)ccc2C)CC1` here?
**A.** 852 s

**Q.** Which RP-LC retention time does the source give for `CCN(CC)C(=O)c1cccnc1` here?
**A.** 627 s

**Q.** For `Fc1ccc(N2CCN(Cc3nc(-c4ccccc4)no3)CC2)cc1`, which RP-LC retention time is on record?
**A.** 964 s

**Q.** For `O=S(=O)(c1ccc(Cl)cc1)N1CCC(c2nc(-c3ccccn3)no2)CC1`, which RP-LC retention time is on record?
**A.** 940 s

**Q.** Which RP-LC retention time does the source give for `CCOc1ccc(NC(=O)c2cnc(-c3ccc(F)cc3)nc2-c2ccncc2)cc1` here?
**A.** 935 s

**Q.** With `Cc1csc(-c2cc(S(=O)(=O)Nc3ccc(Cl)cc3)cn2CC(=O)N2CCCC2)n1` as the molecule, how does the RP-LC retention time read?
**A.** 947 s

**Q.** For `CCOc1cc(=O)n2c(c1C(=O)N1CCCc3ccccc31)CCCC2`, which RP-LC retention time is on record?
**A.** 707 s

**Q.** Which RP-LC retention time does the source give for `O=C(Cn1cccc1-c1nc(-c2ccccc2)no1)Nc1ccc2c(c1)OCCO2` here?
**A.** 1090 s

**Q.** For `COc1ccc(-c2csc(NC(=O)Cn3c(=O)oc4cc(Br)ccc43)n2)cc1`, which RP-LC retention time is on record?
**A.** 1070 s

**Q.** With `CCOc1ccc2nc(N3CCCC(C(=O)N4CCC(Cc5ccccc5)CC4)C3)sc2c1` (configuration not stated) as the molecule, how does the RP-LC retention time read?
**A.** 1180 s

**Q.** With `Cn1c(=O)sc2cc(S(=O)(=O)N3CCC(C(=O)NCCc4ccccc4)CC3)ccc21` as the molecule, how does the RP-LC retention time read?
**A.** 830 s

**Q.** With `Fc1ccc(-c2n[nH]c(C3CCN(Cc4ccoc4)CC3)n2)cc1` as the molecule, how does the RP-LC retention time read?
**A.** 595 s

**Q.** With `Cc1ccc2c(C)nc(NC3=NCN(CC4CCCO4)CN3)nc2c1` (configuration not stated) as the molecule, how does the RP-LC retention time read?
**A.** 660 s

**Q.** With `Cc1cc(Cl)ccc1S(=O)(=O)N1CC(c2nc(Cc3ccccc3)no2)C1` as the molecule, how does the RP-LC retention time read?
**A.** 1140 s

**Q.** Which RP-LC retention time does the source give for `COc1cccc2sc(N(C)CC(=O)Nc3ccc(-n4cnnn4)cc3)nc12` here?
**A.** 729 s

**Q.** Which RP-LC retention time does the source give for `O=C(CNS(=O)(=O)c1ccc2c(c1)OCCO2)N1CCOC(c2ccccc2)C1` (configuration not stated) here?
**A.** 775 s

**Q.** With `CCOc1ccc(-c2noc(CN3C(=O)COc4ccccc43)n2)cc1OC` as the molecule, how does the RP-LC retention time read?
**A.** 968 s

**Q.** For `O=C(Nc1ccc2c(c1)OCCO2)c1c(O)c2cccnc2n(-c2ccccc2)c1=O`, which RP-LC retention time is on record?
**A.** 1150 s

**Q.** For `Cc1ccc(CNC(=O)C2(C)CN(S(C)(=O)=O)CC(=O)N2CCC(C)C)cc1` (configuration not stated), which RP-LC retention time is on record?
**A.** 865 s

**Q.** Which RP-LC retention time does the source give for `Cc1cccc(C)c1-n1ccn(Cc2nc(-c3ccc(Cl)cc3)no2)c(=O)c1=O` here?
**A.** 978 s

**Q.** Which RP-LC retention time does the source give for `CCOc1cccc(-c2noc(Cc3nnc(-c4ccccc4)o3)n2)c1` here?
**A.** 1060 s

**Q.** With `CCOC(=O)c1ccc2nc(C(F)(F)F)nc(NCCCc3ccccc3)c2c1` as the molecule, how does the RP-LC retention time read?
**A.** 1300 s

**Q.** With `CC1CCN(CCCNc2nc3ccncc3n(Cc3ccccc3)c2=O)CC1` as the molecule, how does the RP-LC retention time read?
**A.** 731 s

**Q.** For `CCOCCCNC(=O)c1ccc2c(c1)CCCN2S(C)(=O)=O`, which RP-LC retention time is on record?
**A.** 706 s

**Q.** With `O=C(c1cccs1)N1CC(Oc2ccc(-c3nc(-c4ccccc4)no3)cc2)C1` as the molecule, how does the RP-LC retention time read?
**A.** 1170 s

**Q.** Which RP-LC retention time does the source give for `CCCC1c2nccn2CCCN1C(=O)CCc1c(C)noc1C` (configuration not stated) here?
**A.** 595 s

**Q.** Which RP-LC retention time does the source give for `Cc1ccc(CC(=O)Nc2cnn(C)c(=O)c2N2CCOCC2)cc1` here?
**A.** 764 s

**Q.** With `COc1nccc(N2CCC(CC(=O)NCc3ccc(OC)c(OC)c3)CC2)n1` as the molecule, how does the RP-LC retention time read?
**A.** 575 s

**Q.** With `CC(=O)NCCc1nc2ccccc2n1CCCOc1cccc2ccccc12` as the molecule, how does the RP-LC retention time read?
**A.** 611 s

**Q.** With `CNC(=O)C1CCCN(c2nc3ncn(CC(=O)NCc4ccc(OC)cc4)c(=O)c3s2)C1` (configuration not stated) as the molecule, how does the RP-LC retention time read?
**A.** 632 s

**Q.** For `COc1ccc(NC(=O)Cn2nc3cc(-c4ccccc4)nc(C)n3c2=O)c(OC)c1`, which RP-LC retention time is on record?
**A.** 918 s

**Q.** For `COc1ccc(CNC(=O)N2CCC(c3cc(N)on3)CC2)cc1`, which RP-LC retention time is on record?
**A.** 642 s

**Q.** For `CC(C)(C)c1ccc(C(CNC(=O)c2cc(-c3ccc4c(c3)OCCO4)on2)N2CCCC2)cc1` (configuration not stated), which RP-LC retention time is on record?
**A.** 844 s

**Q.** For `CCOC(=O)COC(=O)c1cn(-c2cccc(C)c2)c(=O)c2ccccc12`, which RP-LC retention time is on record?
**A.** 718 s
